Like-named read-outs stand apart in the source and are kept apart here.
Experiments:
[1] = tested on: wt-REC-1 mantle cell lymphoma cells; assay: Cell proliferation assay wt-REC-1 (ATPlite, 72 hours); type: cell-based; conditions: read-out: IC50 wt-REC-1
Procedure: Results of the BTK […] binding affinity are shown in Table 1 below. • IC50 BTK […]: […] wt-REC-1 mantle cell lymphoma cells were purchased from American Type Culture Collection via Synthego Corporation (cat. no. CRL-3004, ATCC). […] Luminescence was recorded on an Envision multimode reader. The cell signal at the start of incubation was recorded separately in order to distinguish between cell population growth and cell death. In addition, maximum growth was determined by incubation of a duplicate without compound in the presence of 0.3% DMSO. Percentage growth was used as the main y-axis signal. IC50s were fitted by non-linear regression using IDBS XLfitTM5 using a 4-parameter logistic curve, yielding a maximum signal, minimum signal, hill-parameter and IC50. Results of the wt-REC-1 proliferation are shown in Table 1 below. • IC50 wt-REC-1: […]

[2] = molecular target: full-length wt-BTK enzyme (Homo sapiens (Human), UniProt Q06187); assay: Biochemical kinase assay wt-BTK (IMAP)
Sequence of full-length wt-BTK enzyme (Q06187 whole entry): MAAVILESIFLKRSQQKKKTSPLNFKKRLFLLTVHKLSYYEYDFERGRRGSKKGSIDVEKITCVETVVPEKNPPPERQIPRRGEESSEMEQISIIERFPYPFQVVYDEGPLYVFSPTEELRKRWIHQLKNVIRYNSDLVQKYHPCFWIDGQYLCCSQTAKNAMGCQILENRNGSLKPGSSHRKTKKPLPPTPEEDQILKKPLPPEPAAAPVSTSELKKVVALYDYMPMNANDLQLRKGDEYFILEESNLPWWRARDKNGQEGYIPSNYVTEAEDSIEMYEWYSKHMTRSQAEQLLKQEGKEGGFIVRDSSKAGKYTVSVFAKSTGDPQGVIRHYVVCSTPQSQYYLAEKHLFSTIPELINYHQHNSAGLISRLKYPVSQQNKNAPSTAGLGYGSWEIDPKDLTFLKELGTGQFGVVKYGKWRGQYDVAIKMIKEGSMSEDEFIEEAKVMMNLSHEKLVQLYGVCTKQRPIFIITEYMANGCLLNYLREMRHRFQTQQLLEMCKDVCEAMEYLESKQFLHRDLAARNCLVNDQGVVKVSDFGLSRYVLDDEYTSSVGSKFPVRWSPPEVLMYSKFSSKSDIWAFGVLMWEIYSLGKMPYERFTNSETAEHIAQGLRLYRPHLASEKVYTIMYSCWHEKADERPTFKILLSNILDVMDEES
Procedure: Biochemical kinase assay wt-BTK To determine the inhibitory activity of compounds on wt-BTK enzyme activity, the IMAP® assay (Molecular Devices) was used. […] After pre-incubation of 1 hour in the dark at room temperature, fluorescein-labeled MBP-derived substrate peptide (Molecular Devices, cat. no. RP 7123) was added, followed by ATP to start the reaction. Final enzyme concentration was 1.2 nM, final substrate concentration 50 nM, and final ATP concentration was 4 μM. The reaction was allowed to proceed for 2 hours at room temperature in the dark. The reaction was stopped by quenching with IMAP progressive binding solution according to the protocol of the manufacturer (Molecular Devices). Fluorescein polarization was measured on an Envision multimode reader (Perkin Elmer, Waltham, MA, U.S.A.). […] Results of the wt-BTK binding affinity are shown in Table 1 below. • IC50 wt-BTK: […]

[3] = tested on: wt-TMD8 diffuse large B-cell lymphoma cells; assay: Cell proliferation assay wt-TMD8 (ATPlite, 120 hours); type: cell-based; conditions: wt-TMD8 cells, 120 hours, ATPlite, read-out: IC50 wt-TMD8
Procedure: Cell proliferation assay wt-TMD8 diffuse large B-cell lymphoma cells were purchased from Tokyo Medical and Dental University and cultured in RPMI-1640 cell culture medium (cat. no. 61870036, Life Technologies), supplemented with 10% (v/v) heat-inactivated fetal bovine calf serum and 1% penicillin/[…]. 1600 cells per well (in 45 μl) were seeded in a white 384-well culture plate (cat. no. 781080, Greiner Bio-One) and allowed to rest for at least 5 hours at 37° C., 95% humidity, and 5% CO2. 5 μl compound solution was added to the cells and incubation was continued for 120 hours (5 days), followed by addition of 24 μl ATPlite 1Step™ (PerkinElmer, Groningen, The Netherlands) solution was added to each well. Luminescence was recorded on an Envision multimode reader. The cell signal at the start of incubation was recorded separately in order to distinguish between cell population growth and cell death. In addition, maximum growth was determined by incubation of a duplicate without compound in the presence of 0.3% DMSO. Percentage growth was used as the main y-axis signal.

[4] = molecular target: full-length BTK C481S enzyme (Homo sapiens (Human), UniProt Q06187, C481S); assay: Biochemical kinase assay BTK C481S (IMAP)
Sequence of full-length BTK C481S enzyme (Q06187 whole entry C481S): as the sequence (Q06187 whole entry) above, with C481S counted along it
Procedure: Biochemical kinase assay BTK […] To determine the inhibitory activity of compounds on BTK C481S enzyme activity, the IMAP® assay (Molecular Devices) was used. […] After pre-incubation of 1 hour in the dark at room temperature, fluorescein-labeled MBP-derived substrate peptide (Molecular Devices, cat. no. RP 7123) was added, followed by ATP to start the reaction. Final enzyme concentration was 1.2 nM final substrate concentration 50 nM, and final ATP concentration was 7 μM. The reaction was allowed to proceed for 2 hours at room temperature in the dark. The reaction was stopped by quenching with IMAP progressive binding solution according to the protocol of the manufacturer (Molecular Devices). Fluorescein polarization was measured on an Envision multimode reader (Perkin Elmer, Waltham, MA, U.S.A.). IC50 were calculated using XLfitTM5 software (ID Business Solutions, Ltd., Surrey, U.K.). Results of the BTK […] binding affinity are shown in Table 1 below. • IC50 BTK […]: […]

REC-1 T474I cell lines = assay: Cell proliferation assay REC-1 BTK T474I knock-in cells (ATPlite, 72 hours); type: cell-based; conditions: 72 hours, read-out: IC50 REC-1 T474I
Procedure: Cell proliferation assay Generation of BTK […] knock-in cell lines wt-REC-1 cell lines expressing mutant BTK were created at Synthego Corporation. Cell lines expressing BTK […] was generated via CRISPR/Cas9. Monoclonal REC-1 […] cell lines were obtained by single cell cloning. The mutation status of all cell lines was confirmed via sequencing. […] Luminescence was recorded on an Envision multimode reader. The cell signal at the start of incubation was recorded separately in order to distinguish between cell population growth and cell death. In addition, maximum growth was determined by incubation of a duplicate without compound in the presence of 0.3% DMSO. Percentage growth was used as the main y-axis signal.

| Structure (SMILES) | IC50 ([1]; 72 hours) | IC50 [2] | IC50 ([3]; B-cell) | IC50 [4] | IC50 (REC-1 T474I cell lines; Homo sapiens, Rec1) | IC50 [3] | IC50 (REC-1 T474I cell lines) | IC50 ([1]; 72 h) |
| --- | --- | --- | --- | --- | --- | --- | --- | --- |
| CC1NC/C=C/c2cnc(N)c3c(-c4ccc(C(=O)Nc5cc(C(F)(F)F)ccn5)cc4)nn(c23)CC[C@@H](C)NC1=O (single isomer, unassigned) [Example 143] | 100 to 1000 nM | < 5 nM | < 100 nM | < 5 nM | 500 to 10000 nM | – | – | – |
| CC1NC/C=C/c2cnc(N)c3c(-c4ccc(C(=O)Nc5cc(C(F)(F)F)ccn5)cc4)nn(c23)CC[C@@H](C)NC1=O (single isomer, unassigned) [Example 144] | 1000 to 10000 nM | 5 to 50 nM | – | 5 to 50 nM | – | < 100 nM | 500 to 10000 nM | – |
| Nc1ncc2c3c1c(-c1ccc(C(=O)Nc4cc(C(F)(F)F)ccn4)cc1)nn3[C@@H]1CCC[C@H](C1)NC(=O)CCCNC/C=C/2 [Example 15] | – | < 5 nM | < 100 nM | < 5 nM | – | – | – | 100 to 1000 nM |
| Nc1ncc2c3c1c(-c1ccc(C(=O)Nc4cc(C(F)(F)F)ccn4)cc1)nn3[C@@H]1CCC[C@H](C1)NC(=O)CCCCC/C=C/C2 [Example 101a] | – | 5 to 50 nM | – | 5 to 50 nM | 500 to 10000 nM | – | – | 100 to 1000 nM |
| Nc1ncc2c3c1c(-c1ccc(C(=O)Nc4ccccn4)cc1)nn3[C@@H]1CCC[C@H](C1)NC(=O)CCCCC/C=C/C2 [Example 102a] | – | < 5 nM | – | < 5 nM | < 100 nM | – | – | < 100 nM |
| Nc1ncc2c3c1c(-c1ccc(C(=O)Nc4cc(C(F)(F)F)ccn4)cc1)nn3[C@@H]1CCC[C@H](C1)NC(=O)CCCCCC/C=C/C2 [Example 103a] | – | < 5 nM | – | < 5 nM | 100 to 500 nM | – | – | 100 to 1000 nM |
| Nc1ncc2c3c1c(-c1ccc(C(=O)Nc4ccccn4)cc1)nn3[C@@H]1CCC[C@H](C1)NC(=O)COC/C=C/C2 [Example 104a] | – | 50 to 500 nM | – | 50 to 500 nM | 500 to 10000 nM | – | – | 1000 to 10000 nM |
| Nc1ncc2c3c1c(-c1ccc(C(=O)Nc4cc(C(F)(F)F)ccn4)cc1)nn3[C@@H]1CCC[C@H](C1)NC(=O)CCNC/C=C/C2 [Example 106] | – | 5 to 50 nM | – | 5 to 50 nM | 500 to 10000 nM | – | – | 1000 to 10000 nM |
| Nc1ncc2c3c1c(-c1ccc(C(=O)Nc4cc(C(F)(F)F)ccn4)cc1)nn3[C@@H]1CCC[C@H](C1)NC(=O)CCCNC/C=C/C2 [Example 107] | – | 5 to 50 nM | – | 5 to 50 nM | 500 to 10000 nM | – | – | 1000 to 10000 nM |
| Nc1ncc2c3c1c(-c1ccc(C(=O)Nc4cc(C(F)(F)F)ccn4)cc1)nn3[C@@H]1CCC[C@H](C1)NC(=O)CCCNC/C=C\C2 [Example 108] | – | < 5 nM | – | < 5 nM | 500 to 10000 nM | – | – | 100 to 1000 nM |
| C[C@@H]1CCn2nc(-c3ccc(C(=O)Nc4cc(C(F)(F)F)ccn4)cc3)c3c(N)ncc(c32)C/C=C\CCCC(=O)N1 [Example 109a] | – | 5 to 50 nM | – | 5 to 50 nM | 500 to 10000 nM | – | – | 100 to 1000 nM |
| C[C@@H]1CCn2nc(-c3ccc(C(=O)Nc4cc(C(F)(F)F)ccn4)cc3)c3c(N)ncc(c32)C/C=C/CCCC(=O)N1 [Example 109b] | – | 50 to 500 nM | – | 50 to 500 nM | 500 to 10000 nM | – | – | 1000 to 10000 nM |
| C[C@@H]1CCn2nc(-c3ccc(C(=O)Nc4cc(C(F)(F)F)ccn4)cc3)c3c(N)ncc(c32)CC=CCCCCC(=O)N1 [Example 110] | – | 5 to 50 nM | – | 5 to 50 nM | 500 to 10000 nM | – | – | 100 to 1000 nM |

From patent US20250074911A1, “MACROCYCLIC BTK INHIBITORS” (Crossfire Oncology Holding B.V., priority 2021, published 2025)
